Data on one substance can be found in US20240417688A1, “METHODS AND SYSTEMS FOR ADIPOCYTES DIFFERENTIATION” (priority 2021, published 2024).

For the test, the system named is Mesenchymal Stem cells (MSCs). Briefly: Oil Red O staining and quantification of adipogenic differentiation of MSCs in 2D culture. It is filed as cell-based. To be noted: FIG. 3; plate reader. As to the method:
Palmitoleic, erusic, elaidic, and oleic acids are diluted to 20 mM concentration in ethanol absolute. Each FFA is prepared separately, following which, all […] FFAs are mixed together at equal volumes to create the FFA stock mix.
The stock mix is then added to cell growth medium at a concentration of 100 uM per FFA (dilution of 1:50 from stock mix).
Food grade sunflower lecithin is suspended in PBS 1× at 50 mg/ml concentration, and the suspension is sonicated at medium speed for 1-2 min, to then reach a homogenized solution then filtered through a 0.22 μm filter. The lecithin emulsion is added to cell growth medium at a concentration of 1 mg/ml (dilution of 1:50 from stock solution).
The two mediums were refreshed every 3 days and Oil red O quantification was performed on day 8 of contact.
It is noted, that high cell density can cause a curling effect that produced a cell aggregate, reveling underlying cells. A. (negative control culture)—The cell aggregate falsely stained by ORO (A2); the aggregation reviles few cells on the surface of the well (A1). B. (4FFAs+Insulin treatment) Cells produce a sheet that detaches from the surface (B1), with underlying differentiating cells (B3). C. […]
Turning now to FIG. 3, where Oil Red O (ORO) quantification was carried out after extraction using 2-propanol. ORO was extracted and quantified by absorption reading in a plate reader at 492 nm. […]

For insulin, the “Oil Red O (ORO) quantity, absorption at 492 nm after 2-propanol extraction, versus control” value is recorded as “no statistical difference than control”.
